Data reported in ChEMBL document CHEMBL1137009, “Inhibition of sphingosine-1-phosphate lyase for the treatment of autoimmune disorders” (J Med Chem, 2009).

Key:
[1] = (§1) AUC (0 to infinity) in 129/SvEvBrd x C57BL/6 hybrid mouse at 10 mg/kg, po; assay type: ADME, organism-based, Plasma; set-up: time infinity, dose 10 mg/kg, route oral; conditions: 129/SvEvBrd x C57BL/6 hybrid, plasma
[2] = Permeability across human Caco-2 cell membrane at 20 uM; assay type: ADME, cell-based; conditions: read-out: permeability
[3] = Half life in 129/SvEvBrd x C57BL/6 hybrid mouse; assay type: ADME, organism-based; conditions: in vivo
Mus musculus [4] = test: Induction of lymphopenia in 129/SvEvBrd x C57BL/6 hybrid mouse assessed as change in circulating lymphocyte level at 30 mg/kg, po administered as single dose after 18 hrs by complete blood count analysis relative to control; assay type: functional
Mus musculus [5] = test: Toxicity in 129/SvEvBrd x C57BL/6 hybrid mouse at 100 mg/kg, po; assay type: organism-based; set-up: dose 100 mg/kg, route oral; conditions: in vivo
Mus musculus [6] = test: Induction of lymphopenia in 129/SvEvBrd x C57BL/6 hybrid mouse assessed as change in circulating lymphocyte level at 100 mg/kg, po administered as single dose after 18 hrs by complete blood count analysis relative to control; assay type: functional
[7] = Clearance in 129/SvEvBrd x C57BL/6 hybrid mouse at 1 mg/kg, iv; assay type: ADME, organism-based; set-up: dose 1 mg/kg, route intravenous; conditions: in vivo
[8] = (§2) Oral bioavailability in 129/SvEvBrd x C57BL/6 hybrid mouse at 1 mg/kg, iv and 10 mg/kg, po; assay type: ADME, organism-based; conditions: 129/SvEvBrd x C57BL/6 hybrid, in vivo
Mus musculus [9] = test: as §1; assay type: ADME, organism-based, Plasma; set-up: time infinity, dose 10 mg/kg, route oral; conditions: in vivo
Mus musculus [10] = test: as §2; assay type: ADME, organism-based; conditions: in vivo

Row | AUC(0-inf) [1] [µM·h] | Papp at 20 µM [2] [×10⁻⁶ cm/s] | half-life [3] [h] | clearance [7] [mL/min/kg] | bioavailability [8] [%] | AUC (Mus musculus [9]) [µM·h] | F (Mus musculus [10]) [%] | Structure (SMILES) | Activity (Mus musculus [4]) [%] | Activity (Mus musculus [5]) | Activity (Mus musculus [6]) [%]
1 | 10.8 | 9.37 | 6.2 | 7 | 11 | – | – | CC(=O)c1nc([C@@H](O)[C@H](O)[C@H](O)CO)c(C)[nH]1 | – | – | -5
2 | 43.4 | 13.4 | 2.1 | 14 | 88 | – | – | CC(=O)c1cccc([C@@H](O)[C@H](O)[C@H](O)CO)n1 | – | – | 45
3 | 42.7 | – | 3.3 | 6.8 | 42 | – | – | CO[C@H](c1c[nH]c(C(C)=O)n1)[C@H](O)[C@H](O)CO | – | – | 16
4 | – | 4.1 | 4.4 | – | – | 44.5 | 22 | CC(O)c1nc([C@@H](O)[C@H](O)[C@H](O)CO)c[nH]1 (stereo not given in full) | – | – | -15
5 | 18 | 13.1 | 6 | 6.7 | 17 | – | – | CC(=O)c1nc([C@H](O)[C@@H](O)[C@@H](O)CO)c[nH]1 | – | – | 0
6 | 15.7 | 9.9 | 5.4 | 18.8 | 25 | – | – | CC(=O)c1nc([C@@H](O)[C@@H](O)[C@H](O)CO)c[nH]1 | – | – | -31

Continued, compound first:

Row | Structure (SMILES) | AUC(0-inf) [1] [µM·h] | Papp at 20 µM [2] [×10⁻⁶ cm/s] | half-life [3] [h] | clearance [7] [mL/min/kg] | bioavailability [8] [%] | AUC (Mus musculus [9]) [µM·h] | F (Mus musculus [10]) [%] | Activity (Mus musculus [4]) [%] | Activity (Mus musculus [5]) | Activity (Mus musculus [6]) [%]
7 | CC(F)(F)c1nc([C@@H](O)[C@H](O)[C@H](O)CO)c[nH]1 | 4.7 | 11.1 | 1 | – | – | – | – | -58 | Toxic | –
8 | Cc1nc(-c2nc([C@@H](O)[C@H](O)[C@H](O)CO)c[nH]2)cs1 | 6.9 | 19.9 | 2.1 | 19.4 | 23 | – | – | – | – | 0
9 | O=C(c1ccccc1)c1nc([C@@H](O)[C@H](O)[C@H](O)CO)c[nH]1 | 6 | – | 4 | 13.5 | 14 | – | – | -17 | – | –
10 | OC[C@@H](O)[C@@H](O)[C@H](O)c1c[nH]c(C(F)(F)C(F)(F)F)n1 | – | – | 1.7 | – | – | 10 | 31 | -11 | – | –
11 | OC[C@@H](O)[C@@H](O)[C@H](O)c1c[nH]c(-c2cnccn2)n1 | 4.7 | 19.8 | 1.9 | 13.4 | 10 | – | – | – | – | -6
12 | OC[C@@H](O)[C@@H](O)[C@H](O)c1c[nH]c(-c2nc[nH]n2)n1 | – | 1 | – | – | – | – | – | – | – | 7
13 | OC[C@@H](O)[C@@H](O)[C@H](O)c1c[nH]c(-c2ncn(Cc3ccccc3)n2)n1 | 1.7 | 5.1 | 2.4 | 16.4 | 6 | – | – | – | – | -41
14 | CC(=O)c1nc([C@@H](O)[C@H](O)[C@H](O)CO)cn1C | 41.1 | 5.57 | 2.4 | 5.7 | 33.6 | – | – | – | – | 10
15 | CCc1[nH]c(C(C)=O)nc1[C@@H](O)[C@H](O)[C@H](O)CO | 6.4 | 7.93 | 2.8 | 17.3 | 17.1 | – | – | – | – | 8
